Source: patent US9743665B2, “Fungicidal 3-{phenyl[heterocyclylmethoxy)imino]methyl}-oxadiazolone derivatives” (BAYER CROPSCIENCE AKTIENGESELLSCHAFT, priority 2013, dated 2017)
Marks after values point to notes of the source that are not given here.

Tests used:
[1] = pH 2.7
Protocol: (§4) Measurement of IogP values was performed according EEC directive 79/831 Annex V.A8 by HPLC (High Performance Liquid Chromatography) on reversed phase columns with the following methods:
(§5) Measurement of LC-MS was done at pH 2.7 with 0.1% formic acid in water and with acetonitrile (contains 0.1% formic acid) as eluent with a linear gradient from 10% acetonitrile to 95% acetonitrile.
(§6) Calibration was done with not branched alkan2-ones (with 3 to 16 carbon atoms) with known logP-values (measurement of logP values using retention times with linear interpolation between successive alkanones). lambda-maX-values were determined using UV-spectra from 200 nm to 400 nm and the peak values of the chromatographic signals.

Phytophthora infestans [2] = format: in vivo; settings: tomato plants, preventive spray, 500 ppm of active ingredient, evaluated 5 days after inoculation
Septoria tritici = assay: Example G: in vivo preventive test on Septoria tritici (leaf spot on wheat); settings: wheat plants, preventive spray, 500 ppm of active ingredient, evaluated 24 days after inoculation
Protocol: Example G: In Vivo Preventive Test on Septoria tritici (Leaf Spot on Wheat)
(§1) The tested active ingredients are prepared by homogenization in a mixture of acetone/Dimethyl sulfoxide/Tween®, and then diluted with water to obtain the desired active material concentration.
(§2) The young plants of wheat are treated by spraying the active ingredient prepared as described above. Control plants are treated only with an aqueous solution of acetone/Dimethyl sulfoxide/Tween®.
After 24 hours, the plants are contaminated by spraying the leaves with an aqueous suspension of Septoria tritici spores. The contaminated wheat plants are incubated for 72 hours at 18° C. and at 100% relative humidity and then for 21 days at 20° C. and at 90% relative humidity.
The test is evaluated 24 days after the inoculation. 0% means an efficacy which corresponds to that of the control plants while an efficacy of 100% means that no disease is observed.

Pyrenophora teres = assay: Example E: in vivo preventive test on Pyrenophora teres (net blotch on barley); settings: barley plants, preventive spray, 500 ppm of active ingredient, evaluated 14 days after inoculation
Protocol: Example E: In Vivo Preventive Test on Pyrenophora teres (Net Blotch on Barley)
as §1
The young plants of barley are treated by spraying the active ingredient prepared as described above. Control plants are treated only with an aqueous solution of acetone/Dimethyl sulfoxide/Tween®.
After 24 hours, the plants are contaminated by spraying the leaves with an aqueous suspension of Pyrenophora teres spores. The contaminated barley plants are incubated for 48 hours at 20° C. and at 100% relative humidity and then for 12 days at 20° C. and at 70-80% relative humidity.
The test is evaluated 14 days after the inoculation. 0% means an efficacy which corresponds to that of the control plants while an efficacy of 100% means that no disease is observed.

Plasmopara viticola = assay: Example J: Plasmopara test (grapevines)/preventive; format: in vivo; settings: grapevine plants, preventive spray, 10 ppm of active ingredient, evaluated 6 days after inoculation
Protocol: Example J: Plasmopara Test (Grapevines)/Preventive
To produce a suitable preparation of active compound, 1 part by weight of active compound is mixed with the stated amounts of solvent and emulsifier, and the concentrate is diluted with water to the desired concentration.
To test for preventive activity, young plants are sprayed with the preparation of active compound at the stated rate of application. After the spray coating has dried on, the plants are inoculated with an aqueous spore suspension of Plasmopara viticola and then remain for 1 day in an incubation cabinet at approximately 20° C. and a relative atmospheric humidity of 100%. The plant is subsequently placed for 4 days in a greenhouse at approximately 21° C. and a relative atmospheric humidity of approximately 90%. The plants are then misted and placed for 1 day in an incubation cabinet.
The test is evaluated 6 days after the inoculation. 0% means an efficacy which corresponds to that of the untreated control, while an efficacy of 100% means that no disease is observed.

[3] = pH 2.7; remark: listed apart in the source
Protocol: as §4, §5, §6

Phytophthora infestans [4] = format: in vivo; settings: tomato plants, preventive spray (DMF/alkylaryl polyglycol ether), 500 ppm of active ingredient, evaluated 7 days after inoculation
Alternaria brassicae = assay: Example A: in vivo preventive test on Alternaria brassicae (leaf spot on radish); settings: radish plants, preventive spray, 500 ppm of active ingredient, evaluated 6 days after inoculation
Protocol: Example A: In Vivo Preventive Test on Alternaria brassicae (Leaf Spot on Radish)
as §1
The young plants of radish are treated by spraying the active ingredient prepared as described above. Control plants are treated only with an aqueous solution of acetone/Dimethyl sulfoxide/Tween®.
After 24 hours, the plants are contaminated by spraying the leaves with an aqueous suspension of Alternaria brassicae spores. The contaminated radish plants are incubated for 6 days at 20° C. and at 100% relative humidity.
The test is evaluated 6 days after the inoculation. 0% means an efficacy which corresponds to that of the control plants while an efficacy of 100% means that no disease is observed.

Pyricularia oryzae = format: in vivo; settings: rice plants, preventive spray, 500 ppm of active ingredient, evaluated 6 days after inoculation
Botrytis cinerea = assay: Example B: in vivo preventive test on Botrytis cinerea (grey mould); settings: gherkin plants, preventive spray, 500 ppm of active ingredient, evaluated 4 to 5 days after inoculation
Protocol: Example B: In Vivo Preventive Test on Botrytis cinerea (Grey Mould)
as §1
The young plants of gherkin are treated by spraying the active ingredient prepared as described above. Control plants are treated only with an aqueous solution of acetone/Dimethyl sulfoxide/Tween®.
After 24 hours, the plants are contaminated by spraying the leaves with an aqueous suspension of Botrytis cinerea spores. The contaminated gherkin plants are incubated for 4 to 5 days at 17° C. and at 90% relative humidity.
The test is evaluated 4 to 5 days after the inoculation. 0% means an efficacy which corresponds to that of the control plants while an efficacy of 100% means that no disease is observed.

Uromyces appendiculatus = assay: Example H: in vivo preventive test on Uromyces appendiculatus (bean rust); settings: bean plants, preventive spray, 500 ppm of active ingredient, evaluated 11 days after inoculation
Protocol: Example H: In Vivo Preventive Test on Uromyces appendiculatus (Bean Rust)
as §1
The young plants of bean are treated by spraying the active ingredient prepared as described above. Control plants are treated only with an aqueous solution of acetone/Dimethyl sulfoxide/Tween®.
After 24 hours, the plants are contaminated by spraying the leaves with an aqueous suspension of Uromyces appendiculatus spores. The contaminated bean plants are incubated for 24 hours at 20° C. and at 100% relative humidity and then for 10 days at 20° C. and at 70-80% relative humidity.
(§3) The test is evaluated 11 days after the inoculation. 0% means an efficacy which corresponds to that of the control plants while an efficacy of 100% means that no disease is observed.

Puccinia recondita = assay: Example D: in vivo preventive test on Puccinia recondita (brown rust on wheat); settings: wheat plants, preventive spray, 500 ppm of active ingredient, evaluated 11 days after inoculation
Protocol: Example D: In Vivo Preventive Test on Puccinia recondita (Brown Rust on Wheat)
as §1, §2
After 24 hours, the plants are contaminated by spraying the leaves with an aqueous suspension of Puccinia recondita spores. The contaminated wheat plants are incubated for 24 hours at 20° C. and at 100% relative humidity and then for 10 days at 20° C. and at 70-80% relative humidity.
as §3

| SMILES | LogP [1] | % efficacy (Phytophthora infestans [2]) [%] | Eff. % (Plasmopara viticola) [%] | further results |
| --- | --- | --- | --- | --- |
| Cn1c(/C(=N\OCc2nc(C(=O)NC(C)(C)C)cs2)c2ccccc2)noc1=O [Example 5] | 3.22^[a] | 100 |  | % efficacy (Septoria tritici): 86% |
| Cn1c(/C(=N\OCc2nc(NC(=O)OC(C)(C)C)cs2)c2ccccc2)noc1=O [Example 6] | 3.64^[a] | 100 | 99 | % efficacy (Pyrenophora teres): 80% |
| CCCCCOC(=O)Nc1ccn(CO/N=C(/c2ccccc2)c2nc(=O)on2C)n1 [Example 7, pentyl {1-[({[(Z)-(2-methyl-5-oxo-2,5-dihydro-1,2,4-oxadiazol-3-yl)(phenyl)methylene]amino}oxy)methyl]-1H-pyrazol-3-yl}carbamate] |  |  | 85 | chromatographic logP [3]: 3.06; Eff. % (Phytophthora infestans [4]): 100% |
| Cn1c(/C(=N\OCc2nc(C#CC3CC3)cs2)c2ccccc2)noc1=O [Example 10] | 3.56^[a] | 100 |  | % efficacy (Alternaria brassicae): 97% |
| Cn1c(/C(=N\OCc2nc(C#Cc3ccc(F)cc3)cs2)c2ccccc2)noc1=O [Example 13] | 4.09^[a] | 95 |  | % efficacy (Pyricularia oryzae): 79% |
| Cn1c(/C(=N\OCc2nc(C(=O)NCCc3ccccc3)cs2)c2ccccc2)noc1=O [Example 15] | 3.27^[a] | 100 | 75 | % efficacy (Botrytis cinerea): 73% |
| Cn1c(/C(=N\OCc2nc(C(=O)Nc3ccccc3)cs2)c2ccccc2)noc1=O [Example 16] | 3.29^[a] | 80 |  | % efficacy (Pyrenophora teres): 71%; % efficacy (Septoria tritici): 79% |
| Cc1ccc(C(=O)Nc2csc(CO/N=C(/c3ccccc3)c3noc(=O)n3C)n2)cc1 [Example 17] | 3.34^[a] | 100 | 84 |  |
| CCCCCCNC(=O)c1csc(CO/N=C(/c2ccccc2)c2noc(=O)n2C)n1 [Example 18] | 3.76^[a] | 99 |  | % efficacy (Pyrenophora teres): 71%; % efficacy (Uromyces appendiculatus): 72% |
| Cn1c(/C(=N\OCc2nc(C#CCCCc3ccccc3)cs2)c2ccccc2)noc1=O [Example 20] | 4.68^[a] | 90 |  | % efficacy (Puccinia recondita): 78%; % efficacy (Uromyces appendiculatus): 81% |
| CCCC#Cc1csc(CO/N=C(/c2ccccc2)c2noc(=O)n2C)n1 [Example 22] | 3.87^[a] | 100 | 85 |  |
| Cn1c(/C(=N\OCc2nc(NC(=O)C3CCc4ccccc4O3)cs2)c2ccccc2)noc1=O (centres unmarked) [Example 27] | 3.77^[a] | 92 | 99 |  |
| Cn1c(/C(=N\OCc2nc(/C=C/C3CCCCC3)cs2)c2ccccc2)noc1=O [Example 29] | 5.39^[a] | 83 |  | % efficacy (Septoria tritici): 79% |
| Cn1c(/C(=N\OCc2nc(/C=C/C3CC3)cs2)c2ccccc2)noc1=O [Example 34] | 3.90^[a] | 100 |  | % efficacy (Septoria tritici): 86% |
| CC(OCC(=O)Nc1csc(CO/N=C(/c2ccccc2)c2noc(=O)n2C)n1)c1ccccc1 (centres unmarked) [Example 38] | 4.32^[a] | 100 | 96 |  |
| CC(Oc1ccccc1)C(=O)Nc1csc(CO/N=C(/c2ccccc2)c2noc(=O)n2C)n1 (centres unmarked) [Example 40] | 3.55^[a] | 100 | 99 |  |
